Measurements taken from ChEMBL document CHEMBL1201862, “PubChem BioAssay data set” (2004).
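Test compounds were applied to cells in 96-well plates for 48 hours at 5 doses. GI50: concentration for 50% inhibition of growth.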 Calls of active or inactive are those of the source. Cut-off read from the data, not from the text of the source: active = GI50 up to about 1.1 µM and inactive = higher.

What was measured:
Assay in all cases: DTP human tumour cell line panel, 48 h
OVCAR-4 = tested on: OVCAR-4
HCT-15 = tested on: HCT-15
LOX IMVI = tested on: LOX IMVI
SN12C = tested on: SN12C
HL-60 = tested on: HL-60
KM12 = tested on: KM12
SF-295 = tested on: SF-295
SNB-19 = tested on: SNB-19
HOP-18 = tested on: HOP-18
CAKI-1 = tested on: CAKI-1
OVCAR-8 = tested on: OVCAR-8
ACHN = tested on: ACHN
SNB-75 = tested on: SNB-75
EKVX = tested on: EKVX
NCI-H226 = tested on: NCI-H226
HT-29 = tested on: HT-29
SK-MEL-5 = tested on: SK-MEL-5

SMILES | GI50 (OVCAR-4) | GI50 (HCT-15) [µM] | GI50 (LOX IMVI) | GI50 (SN12C) | GI50 (HL-60) | GI50 (KM12) | GI50 (SF-295) | GI50 (SNB-19) | GI50 (HOP-18) | GI50 (CAKI-1) | GI50 (OVCAR-8) | GI50 (ACHN) | GI50 (SNB-75) | GI50 (EKVX) | GI50 (NCI-H226) | GI50 (HT-29) | GI50 (SK-MEL-5)
FC(F)(F)C1(Cl)C(c2ccccc2)=C1c1ccccc1 | 13.5 µM (inactive) | 14.3 | 11.5 µM (inactive) | 15.6 µM (inactive) | 7.73 µM (inactive) | 15.6 µM (inactive) | 14.9 µM (inactive) | 17.9 µM (inactive) | 20.7 µM (inactive) | 12.6 µM (inactive) | 14.9 µM (inactive) | 16.6 µM (inactive) | > 10 µM (inactive) | 16.1 µM (inactive) | 15.5 µM (inactive) | 15.8 µM (inactive) | 11.7 µM (inactive)
COC(=O)C1C(OCc2ccccc2)C2CCC1(OC)C=C2C (stereo not given) | > 100 µM (inactive) | > 89.3 | > 68.7 µM (inactive) | > 100 µM (inactive) | 10.8 µM (inactive) | > 100 µM (inactive) | > 79.6 µM (inactive) | > 81.8 µM (inactive) | > 100 µM (inactive) | > 77.6 µM (inactive) | > 84.9 µM (inactive) | > 61.8 µM (inactive) | > 100 µM (inactive) | 46.9 µM (inactive) | 75.5 µM (inactive) | > 100 µM (inactive) | > 85.5 µM (inactive)
O=C1SC(c2ccccc2)(c2ccccc2)c2ccccc21 | 92.5 µM (inactive) | > 100 | > 100 µM (inactive) | > 100 µM (inactive) | 41.3 µM (inactive) | 66.8 µM (inactive) | > 100 µM (inactive) | > 100 µM (inactive) | > 100 µM (inactive) | > 100 µM (inactive) | > 100 µM (inactive) | 34.3 µM (inactive) | > 100 µM (inactive) | 63.5 µM (inactive) | > 100 µM (inactive) | 57.7 µM (inactive) | 46.3 µM (inactive)
c1ccc2c(c1)cc(C1NCCc3nc[nH]c31)c1ccccc12 (stereo not given) | 37.2 µM (inactive) | 59.6 | 19.8 µM (inactive) | 56 µM (inactive) | 41.6 µM (inactive) | 47.6 µM (inactive) | 56.2 µM (inactive) | > 100 µM (inactive) | > 62.1 µM (inactive) | 48.8 µM (inactive) | > 68.9 µM (inactive) | 23.2 µM (inactive) | 32.7 µM (inactive) | > 100 µM (inactive) | 27.7 µM (inactive) | 44.4 µM (inactive) | > 48 µM (inactive)
O=C(O)C(CS)NCc1c2ccccc2[n+]([O-])c2ccccc12 (stereo not given) | 24.9 µM (inactive) | 22.8 | 28.8 µM (inactive) | 34.4 µM (inactive) | 23.8 µM (inactive) | 31.2 µM (inactive) | 58.1 µM (inactive) | 38 µM (inactive) | 97.1 µM (inactive) | 83.6 µM (inactive) | 30.4 µM (inactive) | 33.4 µM (inactive) | 24 µM (inactive) | 54.3 µM (inactive) | 39.9 µM (inactive) | 37.8 µM (inactive) | 30.7 µM (inactive)
